# According to paper PMC3806465, “Discovery and Evaluation of Thiazinoquinones as Anti-Protozoal Agents” (Marine Drugs, 2013):
# Legend:
# [1] = tested on: L6 rat skeletal myoblast cell line; experiment: Cytotoxicity against L6 cells; format: cell-based; settings: Rattus norvegicus, Myoblast, cytotoxicity, L6 rat skeletal myoblasts; average of two independent assays; read-out: IC50 L6
# Protocol: (§1) The in vitro activities against the protozoan parasites T.b. rhodesiense, T. cruzi, L. donovani, and P. falciparum and cytotoxicity assessment against L6 cells were determined as reported elsewhere.
# [2] = tested on: Trypanosoma cruzi, Tulahuen C4 strain, amastigotes stage; experiment: In vitro activity against T. cruzi; format: cell-based; settings: Trypanosoma cruzi, TULAHUEN, Tulahuen C4, amastigotes; average of two independent assays; read-out: IC50 T. cruzi
# Protocol: as §1
# [3] = tested on: Trypanosoma brucei rhodesiense, STIB 900 strain, trypomastigotes stage; experiment: In vitro activity against T. b. rhodesiense; format: cell-based; settings: Trypanosoma brucei; STIB 900, trypomastigotes; average of two independent assays; read-out: IC50 T. b. rhod.
# Protocol: as §1
# [4] = tested on: Leishmania donovani, MHOM-ET-67/L82 strain, amastigote/axenic stage; experiment: In vitro activity against L. donovani; format: cell-based; settings: Leishmania donovani, MHOM-ET-67/L82, axenic amastigotes; average of two independent assays; read-out: IC50 L. don.
# Protocol: as §1
# [5] = tested on: Plasmodium falciparum, K1 strain, IEF stage; experiment: In vitro activity against P. falciparum K1; format: cell-based; settings: for IC50: Plasmodium falciparum, K1 dual drug resistant strain, IEF stage, average of two independent assays, read-out: IC50 P. falc. K1; for SI Pf: Selectivity index for P. falciparum = IC50 L6/IC50 Pf
# Protocol: as §1
SMILES,melting point,IC50 [1],IC50 [2],IC50 [3],IC50 [4],IC50 [5],SI Pf [5]
"O=C(O)c1cc2c(s1)C(=O)C1=C(C2=O)S(=O)(=O)C=CN1 [Compound 12, 5,9-Dioxo-5,9-dihydro-4H-thieno[2′,3′:4,5]benzo[1,2-b][1,4]thiazine-7-carboxylic Acid 1,1-Dioxide]",290 °C (dec.),140 µM,210 µM,2.2 µM,> 290 µM,0.035 µM,4000
"CCCCNC(=O)c1ccc2c(n1)C(=O)C1=C(C2=O)S(=O)(=O)C=CN1 [Compound 8a, N-n-Butyl-5,10-dioxo-5,10-dihydro-4H-[1,4]thiazino[2,3-g]quinoline-7-carboxamide 1,1-Dioxide]",200 °C (dec.),23 µM,63 µM,3.7 µM,> 280 µM,0.7 µM,33
"O=C(NCCc1ccccc1)c1ccc2c(n1)C(=O)C1=C(C2=O)S(=O)(=O)CCN1 [Compound 7e, N-Phenethyl-5,10-dioxo-3,4,5,10-tetrahydro-2H-[1,4]thiazino[2,3-g]quinoline-7-carboxamide 1,1-Dioxide]",240 °C (dec.),110 µM,140 µM,2.4 µM,160 µM,1.5 µM,72
"CCCCCCCCNC(=O)c1ccc2c(n1)C(=O)C1=C(C2=O)S(=O)(=O)C=CN1 [Compound 8c, N-n-Octyl-5,10-dioxo-5,10-dihydro-4H-[1,4]thiazino[2,3-g]quinoline-7-carboxamide 1,1-Dioxide]",280 °C (dec.),6.5 µM,42 µM,2.4 µM,53 µM,0.98 µM,6
"CCCCCNC(=O)c1ccc2c(n1)C(=O)C1=C(C2=O)S(=O)(=O)C=CN1 [Compound 8b, N-n-Pentyl-5,10-dioxo-5,10-dihydro-4H-[1,4]thiazino[2,3-g]quinoline-7-carboxamide 1,1-Dioxide]",280 °C (dec.),4.8 µM,48 µM,3.6 µM,> 270 µM,1.5 µM,3
"CC(C)=CCC/C(C)=C/CNC(=O)c1ccc2c(n1)C(=O)C1=C(C2=O)S(=O)(=O)C=CN1 [Compound 8g, (E)-N-(3,7-Dimethylocta-2,6-dien-1-yl)-5,10-dioxo-5,10-dihydro-4H-[1,4]thiazino[2,3-g] quinoline-7-carboxamide 1,1-Dioxide]",280 °C (dec.),4.9 µM,42 µM,2.5 µM,150 µM,1.1 µM,4
"CCCCCCCCNC(=O)c1ccc2c(n1)C(=O)C1=C(C2=O)S(=O)(=O)CCN1 [Compound 7c, N-n-Octyl-5,10-dioxo-3,4,5,10-tetrahydro-2H-[1,4]thiazino[2,3-g]quinoline-7-carboxamide 1,1-Dioxide]",200 °C (dec.),12 µM,15 µM,3.9 µM,48 µM,1.1 µM,10
"O=C(NCc1ccccc1)c1ccc2c(n1)C(=O)C1=C(C2=O)S(=O)(=O)C=CN1 [Compound 8d, N-Benzyl-5,10-dioxo-5,10-dihydro-4H-[1,4]thiazino[2,3-g]quinoline-7-carboxamide 1,1-Dioxide]",280 °C (dec.),34 µM,160 µM,4.2 µM,> 250 µM,4.7 µM,7
"CCCCNC(=O)c1ccc2c(n1)C(=O)C1=C(C2=O)S(=O)(=O)CCN1 [Compound 7a, N-n-Butyl-5,10-dioxo-3,4,5,10-tetrahydro-2H-[1,4]thiazino[2,3-g]quinoline-7-carboxamide 1,1-Dioxide]",200 °C (dec.),24 µM,63 µM,5.5 µM,> 280 µM,0.94 µM,26
